Assay results: patent publication US7655808B2, “Leptomycin compounds” (priority 2004, dated 2010)
Read-outs that look alike come from different tables or passages of the source.

Columns and labels:
[1] = tested on: NCI/ADR; test: Inhibition of proliferation / cytotoxicity, NCI/ADR; assay type: cell-based; conditions: NCI/ADR multi-drug resistant breast cancer cell line, read-out: Tumor Cell Line (IC50, nM) NCI/ADR
Procedure: (§1) The biological activity of compounds of this invention was evaluated by measuring their inhibitory effect on the proliferation of various tumor cell lines. MCF-7, A549, and SKOV-3 are human breast, lung, and ovary cancer cell lines, respectively. NCI/ADR is a multi-drug resistant breast cancer cell line. CCRF-CEM and CCRF-CEM/PTX are human leukemia cell lines, the latter being a paclitaxel-resistant subline. LNCaP is a prostate cancer cell line.

[2] = tested on: CCRF-CEM; test: Inhibition of proliferation / cytotoxicity, CCRF-CEM; assay type: cell-based; conditions: CCRF-CEM human leukemia cell line; read-out: Tumor Cell Line (IC50, nM) CCRF-CEM
Procedure: as §1

[3] = tested on: LNCaP; test: Inhibition of proliferation / cytotoxicity, LNCaP; assay type: cell-based; conditions: LNCaP prostate cancer cell line, read-out: Tumor Cell Line (IC50, nM) LNCaP
Procedure: as §1

[4] = tested on: A549; test: Inhibition of proliferation / cytotoxicity, A549; assay type: cell-based; conditions: A549 human lung cancer cell line; read-out: Tumor Cell Line (IC50, nM) A549
Procedure: as §1

[5] = tested on: MCF-7; test: Inhibition of proliferation / cytotoxicity, MCF-7; assay type: cell-based; conditions: MCF-7 human breast cancer cell line, read-out: Tumor Cell Line (IC50, nM) MCF-7
Procedure: as §1

[6] = tested on: CCRF-CEM/PTX; test: Inhibition of proliferation / cytotoxicity, CCRF-CEM/PTX; assay type: cell-based; conditions: CCRF-CEM/PTX paclitaxel-resistant human leukemia subline; read-out: Tumor Cell Line (IC50, nM) CCRF-CEM/PTX
Procedure: as §1

[7] = Mouse maximum tolerated dose, single dose intravenous; assay type: in vivo; conditions: mice, single dose intravenous administration
Procedure: The maximum tolerated dose (MTD) in mice, upon single dose intravenous administration was determined for a representative selection of compounds. The data are summarized in Table 4, with comparative data for LMB included.

[8] = tested on: SKOV-3; test: Inhibition of proliferation / cytotoxicity, SKOV-3; assay type: cell-based; conditions: SKOV-3 human ovary cancer cell line, read-out: Tumor Cell Line (IC50, nM) SKOV-3
Procedure: as §1

[9] = tested on: K562 cells; test: Cytotoxicity against Bcr-Abl positive K562 cells; assay type: cell-based; conditions: K562, Bcr-Abl positive CML cell line
Excerpt: Data was also obtained for the cytotoxicity of several compounds of this invention against K562, a Bcr-Abl positive CML cell line, as shown in Table 3 with comparative data for LMB included.

[10] = tested on: MB 49 cells; test: Cytotoxicity against MB 49 murine bladder cancer cells; assay type: cell-based
Excerpt: Table 5 presents data on the cytotoxicity of LMB and selected compounds of this invention against MB 49 cells, a line of murine bladder cancer cells.

[11] = Kudo et al., Exp. Cell Res. 1998; cited from earlier work
[12] = phase 1 trial halted in 1994; cited from earlier work
[13] = tested on: UMUC-3; test: Cytotoxicity against human bladder cancer cells UMUC-3; assay type: cell-based; conditions: UMUC3; UMUC-3 human bladder cancer cells
Procedure: (§2) Additionally, the cytotoxicity of LMB was determined against two lines of human bladder cancer cells (UMUC-3 and T24).

[14] = tested on: mammalian cells; conditions: Hamamoto et al., J. Antibiotics 1983; cited from earlier work
[15] = tested on: T24; test: Cytotoxicity against human bladder cancer cells T24; assay type: cell-based; conditions: T-24
Procedure: as §2

Compound | IC50 [1] [nM] | IC50 [2] [nM] | IC50 [3] [nM] | IC50 [4] [nM] | IC50 [5] [nM] | IC50 [6] [nM] | IC50 [8] [nM] | also measured
CCC(C=CC1OC(=O)C=CC1C)=CC(C)CC=CC(C)=CC(C)C(=O)C(C)C(O)C(C)CC(C)=CC(=O)NCCN(C)C (stereo not drawn) [Compound 7] | 110 | 1.4 | 0.7 | 2.2 | 0.61 | 3.1 | 2.8 | Mouse MTD [7]: 15 mg/kg
CCC(C=CC1OC(=O)C=CC1C)=CC(C)CC=CC(C)=CC(C)C(=O)C(C)C(O)C(C)CC(C)=CC(=O)NCCCN1CCOCC1 (stereo not drawn) [Compound 8] | 39 | 0.98 | 0.5 | 0.84 | 0.3 | 2.1 | 2.5 | IC50 [9]: 1 nM; IC50 [10]: 6.8 nM; Mouse MTD [7]: 20 mg/kg
CCC(C=CC1OC(=O)C=CC1C)=CC(C)CC=CC(C)=CC(C)C(=O)C(C)C(O)C(C)CC(C)=CC(=O)NCC(=O)OC (stereo not drawn) [Compound 10] | 4.6 | 0.63 | 0.8 | 1.4 | 0.3 | 0.5 | 2.7 | 
CCC(C=CC1OC(=O)C=CC1C)=CC(C)CC=CC(C)=CC(C)C(=O)C(C)C(O)C(C)CC(C)=CC(=O)NCCC1OCCO1 (stereo not drawn) [Compound 11] | 5.8 | 0.43 |  | 0.67 | 0.3 | 0.47 | 1.5 | 
CCC(C=CC1OC(=O)C=CC1C)=CC(C)CC=CC(C)=CC(C)C(=O)C(C)C(O)C(C)CC(C)=CC(=O)NCCN (stereo not drawn) [Compound 15] | 630 | 17 | 4.2 | 15 | 4.6 | 110 | 41 | 
CCC(C=CC1OC(=O)C=CC1C)=CC(C)CC=CC(C)=CC(C)C(=O)C(C)C(O)C(C)CC(C)=CC(=O)NCCNC(=O)CCC1=NC(=Cc2c(C)cc(C)n2B(F)F)C=C1 (stereo not drawn) [Compound 19] | 300 |  | 1.6 | 4.6 | 3.4 |  | 20 | 
CCC(C=CC1OC(=O)C=CC1C)=CC(C)CC=CC(C)=CC(C)C(=O)C(C)C(O)C(C)CC(C)=CC(=O)NCCCCNC(=O)OC(C)(C)C (stereo not drawn) [Compound 14] | 33 | 1.7 |  | 1.6 | 0.3 | 2.4 | 2.5 | 
CCC(C=CC1OC(=O)C=CC1C)=CC(C)CC=CC(C)=CC(C)C(=O)C(C)C(O)C(C)CC(C)=CC(=O)Nc1ccc2cn[nH]c2c1 (stereo not drawn) [Compound 5] | 34 | 3.1 |  | 3.3 | 2 | 9 | 5.9 | 
CCC(C=CC1OC(=O)C=CC1C)=CC(C)CC=CC(C)=CC(C)C(=O)C(C)C(O)C(C)CC(C)=CC(=O)NCCO (stereo not drawn) [Compound 2] | 27 | 2.4 |  | 2.2 | 0.78 | 2.8 | 2.6 | 
CCC(C=CC1OC(=O)C=CC1C)=CC(C)CC=CC(C)=CC(C)C(=O)C(C)C(O)C(C)CC(C)=CC(=O)NCCNC (stereo not drawn) [Compound 16] | 460 | 1.8 | 27.2 | 3.5 | 3.2 | 29 | 9.7 | 
CCC(C=CC1OC(=O)C=CC1C)=CC(C)CC=CC(C)=CC(C)C(=O)C(C)C(O)C(C)CC(C)=CC(=O)NCCCCCNC(=O)COc1ccc(C2=NC(=Cc3ccc(-c4cccs4)n3B(F)F)C=C2)cc1 (stereo not drawn) [Compound 20] | 1000 |  | 87.4 | 250 | 210 |  | 570 | 
CCC(C=CC1OC(=O)C=CC1C)=CC(C)CC=CC(C)=CC(C)C(=O)C(C)C(O)C(C)CC(C)=CC(=O)NCCOc1ccccc1 (stereo not drawn) [Compound 9] | 37 | 1.9 |  | 2.8 | 0.64 | 2.5 | 4.3 | 
CCC(=C/[C@H](C)C/C=C/C(C)=C/[C@@H](C)C(=O)[C@@H](C)[C@H](O)[C@@H](C)C/C(C)=C/C(=O)OC)/C=C/[C@@H]1OC(=O)CC(C[N+](=O)[O-])[C@@H]1C (stereo partly drawn) [nitromethyl valerolactone LMB analog] |  |  |  |  |  |  |  | activity of LMB analog [11]: inactive
CCC(C=CC1OC(=O)C=CC1C)=CC(C)CC=CC(C)=CC(C)C(=O)C(C)C(O)C(C)CC(C)=CC(=O)NC (stereo not drawn) [Compound 1] | 2.1 | 0.69 | 0.8 | 0.36 | 0.27 | 0.46 | 1.7 | Mouse MTD [7]: 5 mg/kg
CCC(C=CC1OC(=O)C=CC1C)=CC(C)CC=CC(C)=CC(C)C(=O)C(C)C(O)C(C)CC(C)=CC(=O)NCc1c(C)c(=O)n2c(=O)c(C)c(C)n12 (stereo not drawn) [Compound 18] | 380 |  |  | 4.3 | 3.4 |  | 15 | 
CCC(C=CC1OC(=O)C=CC1C)=CC(C)CC=CC(C)=CC(C)C(=O)C(C)C(O)C(C)CC(C)=CC(=O)NCCc1cccnc1 (stereo not drawn) [Compound 4] | 19 | 1 | 0.5 | 0.84 | 0.32 | 1.4 | 2.8 | IC50 [9]: 1.7 nM; IC50 [10]: 5.9 nM; Mouse MTD [7]: 40 mg/kg
CCC(C=CC1OC(=O)C=CC1C)=CC(C)CC=CC(C)=CC(C)C(=O)C(C)C(O)C(C)CC(C)=CC(=O)NCC(=O)O (stereo not drawn) [Compound 21] | 260 |  | 28.6 | 37 | 31 |  | 57 | 
CCC(=C/[C@H](C)C/C=C/C(C)=C/[C@@H](C)C(=O)[C@@H](C)[C@H](O)[C@@H](C)C/C(C)=C/C(=O)NCCCCCCNC(=O)CCCC[C@H]1SC[C@@H]2NC(=O)N[C@@H]21)/C=C/[C@@H]1OC(=O)C=C[C@@H]1C [biotinylated LMB] |  |  |  |  |  |  |  | activity of LMB analog [11]: active
CCC(=C/[C@H](C)C/C=C/C(C)=C/[C@@H](C)C(=O)[C@@H](C)[C@H](O)[C@@H](C)C/C(C)=C/C(=O)O)/C=C/[C@@H]1OC(=O)C=C[C@@H]1C [LMB, Leptomycin B, reference compound] |  | 0.65 |  | 0.3 |  | 0.41 |  | IC50 ([9]; Homo sapiens): 0.6 nM; IC50 ([1]; Homo sapiens, NCI/ADR-RES): 1 nM; toxicity in phase 1 trial [12]: extreme toxicity; IC50 ([10]; Mus musculus, MB49): 1.8 nM; EC50 [13]: 0.33 nM; cytotoxicity towards mammalian cells [14]: remarkable cytotoxicity; EC50 [15]: 1.2 nM; IC50 ([3]; Homo sapiens): 0.3 nM; IC50 ([5]; MCF7): 0.29 nM; Mouse MTD [7]: 2.5 mg/kg; IC50 ([8]; SK-OV-3): 1.5 nM
CCC(C=CC1OC(=O)C=CC1C)=CC(C)CC=CC(C)=CC(C)C(=O)C(C)C(O)C(C)CC(C)=CC(=O)NCCNC(C)C (stereo not drawn) [Compound 17] | 740 |  |  | 4.7 | 3.5 |  | 44 | 
CCC(C=CC1OC(=O)C=CC1C)=CC(C)CC=CC(C)=CC(C)C(=O)C(C)C(O)C(C)CC(C)=CC(=O)NCCNC(=O)OC(C)(C)C (stereo not drawn) [Compound 6] | 34 | 1.1 |  | 1.3 | 0.32 | 2.3 | 1.2 | 
CCC(C=CC1OC(=O)C=CC1C)=CC(C)CC=CC(C)=CC(C)C(=O)C(C)C(O)C(C)CC(C)=CC(=O)NCc1ccc(-c2ccccc2)cc1 (stereo not drawn) [Compound 3] | 150 | 3.5 |  | 13 | 3.7 | 17 | 13 | 
